The values below come from US20200146989A1, “A CO-AMORPHOUS FORM OF A SUBSTANCE AND A DIPEPTIDE” (University of Copenhagen, priority 2016, published 2020).

Holding throughout (assay type): physicochemical
Data set [1] in a line: Ease of amorphization by ball milling, checked by XRPD. More on the design: key to Success in amorphization (yes/no): yes=y; no=n. The method, then:
Amorphous and co-amorphous systems of the pure drugs and the binary and ternary mixtures with the amino acids or ASPA were prepared by vibrational ball milling.
The samples were prepared by placing a total amount of 500 mg of either the pure crystalline drug, mixtures of drug with one or two amino acids (molar ratio of either 1:1 or 1:1:1) or drug-dipeptides (1:1 molar ratio) in 25 ml milling jars containing two 12 mm stainless steel balls. The samples were milled at 30 Hz up to 180 min in an oscillatory ball mill (Mixer Mill MM400, Retch GmbH & Co, Haan, Germany) placed in a cooling room at 6° C.
(§1) The X-ray powder diffraction (XRPD) analysis was performed using a X'Pert Pro X-ray Diffractometer (PANalytical, Almelo, The Netherlands) using a Cu Kα radiation source (λ=1.54187 Å). An acceleration voltage and current of 45 kV and 40 mA were used. Samples were scanned in reflection mode between 5° and 35° 2θ with a scan speed of 0.0673° 2θ/s and a step size of 0.0262°. Data were collected and analyzed using the software X'Pert Data Collector (PANalytical, Almelo, The Netherlands). Samples were filled onto aluminum sample holders and gently compressed with a spatula, in order to contain a compacted and smooth surface.

The nature of data set [2]: Intrinsic dissolution rate (IDR) of compressed disks. To be noted: 0.01M phosphate buffer pH 7.2, 37° C., 100 rpm, triplicate. The method, then:
For the intrinsic dissolution rate (IDR) studies, 150 mg of powder was compressed directly into stainless steel cylinders, which served as IDR sample holders, with a hydraulic press (Hydraulische Presse Model IXB-102-9, PerkinElmer, Ueberlingen, Germany). Disks of pure crystalline drug, pure amorphous drug, and the co-amorphous blends of respectively drug-AA, drug-AA-AA and drug-dipeptide, shown in table 1.1, were compressed at different compaction pressures between 124.9 MPa and 249.7 MPa for 60 seconds in order to obtain a stable compact with smooth surface.
For the dissolution experiment an Erweka DT70 dissolution tester (Erweka GmbH, Heusenstamm, Germany) was used. […] The samples were analyzed with the respective HPLC method for the different drugs as described below. […]
The IDR was calculated as the drug release per accessibility area (μg cm^−2). For this purpose the drug concentration at the different time points was analyzed with HPLC (μg mL-^1), multiplied with 900 ml and divided with the accessible surface area of the drug.
For the pure drugs the accessible area, was set to be the surface area of the compact (0.7854 cm^2). […] The corrected accessible surface area was calculated based on the accessibility area within the mixture. […] From the calculated drug volume and the total volume of the tablet the relative drug volume percentage could be determined. […]

A short description of data set [3]: Physical stability of amorphous and co-amorphous samples on dry storage, recrystallization detected by XRPD. To be noted: for Stability at 40° C. / Stability at room temperature: dry conditions, amorphous halo in XRPD. The method, then:
as §1, with “a X'Pert Pro X-ray” left out, “Å).” for “Å).”, “surface. The pure amorphous drugs and co-amorphous mixtures were stored under dry conditions in desiccators at room temperature and 40° C.” for “surface.”

A short description of data set [4]: Powder dissolution, miniaturized USP 2 set-up. To be noted: 0.1 M phosphate buffer pH 6.8, 37° C.; for MEB concentration released after 20 min of dissolution: 100 rpm, 5 mg MEB in 100 ml. The procedure: Powder dissolution studies were performed in an ERWEKA DT70 dissolution tester (Heusenstamm, Germany) equipped with a custom-made miniaturized dissolution set-up described earlier [DOI: 10.1208/s12249-008-9161-6]. This set-up is a down-scaled version (the vessel size is 250 mL) of USP apparatus 2, and the hydrodynamics is essentially similar to the standard USP 2 apparatus. Pure drugs, drug-ASPA mixtures or drug-dipeptide mixtures containing an equivalent amount of 5 mg of MEB or 5 mg of TAD in total were placed in 100 ml of 0.1 M phosphate buffer (pH 6.8, 37° C.) and stirred at a rotation speed of 100 rpm. At predetermined time points (2, 5, 10, 20, 30, 60, 120, 180, 240, 300 and 360 min), 1 ml sample was withdrawn and immediately replaced with pre-warmed dissolution buffer. The obtained samples were quantified after filtration (0.45 μm) with the respective HPLC method for the different drugs as described below. All dissolution experiments were conducted in triplicate.
All samples from the dissolution studies were analyzed on a Dionex (Germering, Germany) HPLC system equipped with a P680 pump, an ASI-100 automated sample injector and a PDA 100 photodiode array detector was used. A reverse-phase Kinetex C18 ([…]×4.6 mm, 5 μm) column with UV detection at 240 nm for CRV, 264 nm for IND, 312 nm for MEB and 285 nm for TAD was used, with a constant flow rate of 1.0 ml min^−1 and an isocratic solvent system. The mobile phases (MP) consisted of 50% (V/V) phosphoric acid (pH=2) and 50% MeOH for the analysis of CRV, 25% (V/V) phosphoric acid (pH=2) and 75% MeOH for the analysis of IND, 47% (V/V) of 0.05 M KH2PO4, 20% (V/V) of acetonitrile and 33% (V/V) methanol for the analysis of MEB, 60% (V/V) 0.0724 M pH 6.8 phosphate buffer and 40% (V/V) of acetonitrile for the analysis of TAD, respectively. Chromatograms were analyzed by using Chromeleon Version 7.1.3.2425 software. […]

Several values for one entry are separate records, joined by “and”; a condition that tells them apart may be missing. Equal values may be shown once. Bounds are passed on as bounds.

Take `COc1ccccc1OCCNCC(O)COc1cccc2[nH]c3ccccc3c12` (centres unmarked) [CRV, Carvedilol]: the “Success in amorphization (yes/no)” value in data set [1] (IND and CRV samples, ball milled 90 or 180 min, XRPD) is “y”. Besides, in data set [2] (listed as amorphous CRV), the “intrinsic dissolution rate (IDR)” value is 0.0086±0.001 mg cm^−2 min^−1 and 0.009±0.001 mg cm^−2 min^−1.

Regarding `COc1ccc2c(c1)c(CC(=O)O)c(C)n2C(=O)c1ccc(Cl)cc1` [IND, Indomethacin], in data set [3] (IND and CRV), the “Stability at 40° C.” value is listed as less than 7 days and the “Stability at room temperature” value is reported as less than 7 days. Besides, in data set [3] (storage at room temperature and 40° C. dry conditions, temperature not split in the sentence), the “recrystallization peaks in the XRPD diffractograms within” value is not above 7 days. In addition, in data set [2], the “intrinsic dissolution rate (IDR)” value came to 0.128±0.004 mg cm^−2 min^−1.

In the case of `COC(=O)Nc1nc2ccc(C(=O)c3ccccc3)cc2[nH]1` [MEB, Mebendazole], the “Stability at room temperature” value in data set [3] (MEB and TAD) is more than 2 months. In addition, the “Milling time fully amorphization” value in data set [1] (MEB samples, XRPD at 30, 60, 90 and 180 min of ball milling) is 60 min. Besides, the “Success in amorphization (yes/no)” value in data set [1] (MEB samples, ball milled, XRPD at 30, 60, 90 and 180 min) is “y”. Further, in data set [4] (listed as amorphous MEB), the “MEB concentration released after 20 min of dissolution” value came to 0.99 µg/mL. Moreover, the “concentration after 240 min of dissolution as fold of crystalline MEB” value in data set [4] (240 min) is given as “approx. 4.3 fold”.

With `CN1CC(=O)N2[C@H](c3ccc4c(c3)OCO4)c3[nH]c4ccccc4c3C[C@@H]2C1=O` [TAD, Tadalafil], in data set [3] (MEB and TAD), the “Stability at 40° C.” value was more than 2 months and the “Stability at room temperature” value is more than 2 months.

Take `COC(=O)Nc1nc2ccc(C(=O)c3ccccc3)cc2[nH]1` [crystalline MEB, Mebendazole]: in data set [4], the “MEB concentration released after 20 min of dissolution” value came out at 0.23 µg/mL.
